Data: the NIST ThermoML archive (doi:10.1021/je901050v)

Tests used:
[1] = 101.33 kPa, Liquid; for mass density: Vibrating tube method; for viscosity: Concentric cylinders viscometry
[2] = refractive index (Na D-line) (dimensionless); details: 101.33 kPa, Liquid, Standard Abbe refractometry

CCCCn1cc[n+](CCC#N)c1.[Br-] [1-butyl-3-(2-cyanoethyl)-1H-imidazolium bromide]
Details | mass density, [1] [kg/m3] | refractive index, [2] | viscosity, [1] [mPa·s]
293.15 K | 1308.5 | – | –
298.15 K | 1304.7 | 1.5454 | 19103
303.15 K | 1301.1 | 1.54454 | 11304
308.15 K | 1297.7 | 1.54346 | 7058.4
313.15 K | 1294.3 | 1.54229 | 4502.1
318.15 K | 1291 | 1.54111 | 2953
323.15 K | 1287.6 | 1.53992 | 1989.7
328.15 K | 1284.4 | 1.53869 | 1377.5
333.15 K | 1281.2 | 1.53748 | 975.6
338.15 K | 1277.9 | – | 705.8
343.15 K | 1274.7 | – | 520.5
348.15 K | 1271.4 | – | 390.7
353.15 K | 1268.2 | – | 298.1

CCCCCCCCn1cc[n+](CCC#N)c1.[Br-] [3-(2-cyanoethyl)-1-octyl-1H-imidazolium bromide]
Details | mass density, [1] [kg/m3] | refractive index, [2] | viscosity, [1] [mPa·s]
293.15 K | 1180.1 | – | –
298.15 K | 1176.6 | 1.51473 | –
303.15 K | 1173.2 | 1.51362 | –
308.15 K | 1169.8 | 1.51266 | 19620
313.15 K | 1166.4 | 1.51149 | 13044
318.15 K | 1163 | 1.51024 | 8302.7
323.15 K | 1159.6 | 1.50891 | 5136.1
328.15 K | 1156.2 | 1.50757 | 3291.8
333.15 K | 1152.9 | 1.50604 | 2160.4
338.15 K | 1149.5 | – | 1459.8
343.15 K | 1146.1 | – | 1019.6
348.15 K | 1142.8 | – | 727.9
353.15 K | 1139.6 | – | 530.5

CCCCCCCCCCn1cc[n+](CCC#N)c1.[Br-] [3-(2-cyanoethyl)-1-decyl-1H-imidazolium bromide]
Details | mass density, [1] [kg/m3] | refractive index, [2] | viscosity, [1] [mPa·s]
308.15 K | 1134.2 | 1.50786 | –
313.15 K | 1129.5 | 1.50696 | 16702
318.15 K | 1125.6 | 1.50606 | 10314
323.15 K | 1121.2 | 1.50502 | 6813.4
328.15 K | 1118.2 | 1.50388 | 4573.6
333.15 K | 1115 | 1.50279 | 3016.4
338.15 K | 1111.7 | – | 2051.2
343.15 K | 1108.5 | – | 1426.6
348.15 K | 1105.2 | – | 1014.6
353.15 K | 1101.9 | – | 737

CCCCCCn1cc[n+](CCC#N)c1.[Br-] [3-(2-cyanoethyl)-1-hexyl-1H-imidazolium bromide]
Details | mass density, [1] [kg/m3] | refractive index, [2] | viscosity, [1] [mPa·s]
293.15 K | 1232.4 | – | –
298.15 K | 1229 | 1.52872 | –
303.15 K | 1225.6 | 1.52823 | 15893
308.15 K | 1222.3 | 1.52719 | 9029.8
313.15 K | 1219 | 1.526 | 5610.4
318.15 K | 1215.7 | 1.52479 | 3602.1
323.15 K | 1212.4 | 1.52354 | 2379.9
328.15 K | 1209.1 | 1.52229 | 1618.2
333.15 K | 1205.8 | 1.52117 | 1128.4
338.15 K | 1202.5 | – | 805.1
343.15 K | 1199.2 | – | 639.6
348.15 K | 1195.9 | – | 465.7
353.15 K | 1192.7 | – | 359.3
